According to US9643995B2, “Triterpene glycoside and triterpene compositions and methods of using same” (Research Foundation of the City University of New York, priority 2013, dated 2017):
≈ marks a conversion by molar mass, not a printed value.

Legend:
MDA-MB-453 cells [1] = assay: Apoptosis: caspase 3 activity; type: cell-based, human; settings: actein 2 μg/ml, Herceptin 16 μg/ml, 48 h
calcium channels = assay: Calcium release from cells; type: cell-based; settings: low concentrations (100 nM); stated as believed mode of action
MCF10F = assay: Growth inhibition of nonmalignant mammary epithelial cells by actein; type: cell-based, human
Her2 = assay: Western blot analysis of Her2 protein level; type: cell-based; settings: 40 μg/ml, 24 h, normalized to β-acetin
Excerpt: (§1) Effect of actein on the level of Her2 protein: The effect of actein on the level of Her2 and activated Her2 (p-Her2) protein was examined using Western blot analysis. […] The results validate an effect of actein on the Her2 pathway.

[2] = rat, in vivo, 35.7 mg/kg; cited from earlier work
activated Her2 (p-Her2) = assay: Western blot analysis of activated Her2 protein level; type: cell-based; settings: 40 μg/ml, 24 h, normalized to β-acetin
Excerpt: as §1

MDA-MB-453 cells [3] = assay: Apoptosis: DNA fragmentation; type: cell-based, human; settings: actein 2 μg/ml, Herceptin 16 μg/ml, 48 h

CC(=O)O[C@@H]1C[C@@]23C[C@@]24CC[C@H](O[C@@H]2OC[C@@H](O)[C@H](O)[C@H]2O)C(C)(C)[C@@H]4CC[C@H]3[C@]2(C)C[C@@H]3O[C@]4(C[C@@H](C)[C@@H]3[C@@]12C)O[C@H](O)[C@@]1(C)O[C@@H]41 [actein, Actein]
caspase 3 activity (MDA-MB-453 cells [1]): 1.29 fold relative to control
effect on calcium channels (calcium channels): immediately opens calcium channels and releases calcium from cells
IC50 (MCF10F): 42 µg/mL (≈ 62.1 µM)
level of Her2 protein (Her2): 0.72 fold
peak serum level [2]: about 2.4 μg/ml
time of peak serum level [2]: 6 h
level of p-Her2 protein (activated Her2 (p-Her2)): 0.37 fold
DNA fragmentation (MDA-MB-453 cells [3]): 0.89 fold relative to control
